Like-named read-outs stand apart in the source and are kept apart here.
Assays:
[1] = in vitro; details: human, hepg2 cells
[2] = test system: HepG2; details: human, hepg2 cells, 48 h
[3] = test system: P. falciparum Dd2 (clone B2) asexual blood stage parasites; test: P. falciparum Dd2 asexual blood stage SYBR Green-I 72 h proliferation assay (qHTS); assay type: cell-based, Plasmodium falciparum; details: Plasmodium falciparum, DD2, Dd2 parental; Hill fit, averaged from three independent replicates; top concentration 29 µM; read-out: Average AC50 (Log[M]), Dd2 (converted)
[4] = test system: P. falciparum Dd2 Cytb G131S; test: SYBR Green ABS proliferation assay, NCGC00374598 selected clone C11; assay type: cell-based, Plasmodium falciparum; details: Plasmodium falciparum, DD2, […]; averaged from three independent replicates; top concentration 29 µM; read-out: Average AC50 (Log[M]), NCGC00374598 clone C11 (Cytb G131S) (converted)
Protocol: (§1) As resistance selection studies implicated the parasite cytochrome bc1 complex in mediating reduced parasite susceptibility to both NCGC00473217 and NCGC00374598, we leveraged these drug-selected parasites to test for altered drug response to a panel of antimalarial compounds.
(§2) The P. falciparum parasite Dd2 line was cultured in vitro using standard conditions. […] Tissue culture flasks and assay plates were incubated at 37 °C under a gas mixture of 5% CO2, 5% O2 and 90% N2. […] Significant differences were assessed using two-sided Student’s t-tests. All HTS assays were stopped and read at 72 h. Percent response values represent relative growth as judged by SYBR Green-I fluorescence intensity values normalized to controls.
(§3) Fresh uninfected RBCs (0.5% hematocrit) were added on day 7 and media was changed every other day. […] Resistant parasites were maintained under drug media at a volume of 50 mL until a high parasitemia (> 5%) was achieved. Aliquots of the bulk resistant cultures were frozen in cryovials before cloning by limiting dilution in 96-well plates (seeded at 0.25 or 0.5 parasites/well)[70]. After 3 weeks of cloning, we screened for positive wells by flow cytometry with SYBR Green-stained cells. […] Parasites were harvested by saponin lysis at the trophozoite stage and genomic DNA was extracted using the QIAamp DNA Blood Midi Kit (Qiagen, Germantown, MD)[71].

[5] = test system: P. falciparum Dd2 Cytb V259L; test: SYBR Green ABS proliferation assay, NCGC00473217 selected clone F06; assay type: cell-based, Plasmodium falciparum; details: Plasmodium falciparum, DD2, […]; averaged from three independent replicates; top concentration 29 µM; read-out: Average AC50 (Log[M]), NCGC00473217 clone F06 (Cytb V259L) (converted)
Protocol: as §1, §2, §3

[6] = test system: P. berghei-ANKA-GFP-LucCON liver stage parasites in HepG2-A16-CD81EGFP cells; test: P. berghei liver stage Pb-Luc assay, Method 1 (UCSD, 1536-well); assay type: cell-based, Plasmodium berghei; details: Plasmodium berghei, 48 h, average of 2 wells, 1536-well plate; for activity at 1 µM: nominal 1 uM (10 mM stock), […] for 15 mM, 1.2 uM for 12 mM, 2 uM for 20 mM stock; for activity at 3 µM: nominal 3 uM (10 mM stock), 4.5 uM for 15 mM, 3.6 uM for 12 mM, 6 uM for 20 mM stock
[7] = in vitro; details: human, HepG2-A16-CD81EGFP cells, uninfected
[8] = test system: HepG2-A16-CD81EGFP cells; details: average of 2 wells, repeat 2
[9] = test system: Plasmodium falciparum Dd2 asexual blood stage parasites; test: microbe, parasite or virus in culture; parameters: species or system Plasmodium falciparum Dd2 in human erythrocytes; single determination (one 11-point concentration-response curve); details: Plasmodium falciparum, DD2, Erythrocyte, 72 h; read-out: AC50

| Structure (SMILES) | Log AC50 (M) [2] | CC50 at 48 h [1] | AC50 [4] | also measured |
| --- | --- | --- | --- | --- |
| O=c1c2ccccc2nc2n1CCN2Cc1ccc(Cl)cc1 [MLS000107729-01] | -4.3643 M | 43.2 µM |  |  |
| CCCN1C(CC(C)C)=N[S+](=O)([O-])c2cc(N[S+](=O)([O-])c3cc4ccccc4s3)ccc21 [NCGC00521156-01] |  |  | 1e-06 M | AC50 [3]: 1.26e-06 M |
| CCCN1C(CC(C)C)=N[S+](=O)([O-])c2cc(N[S+](=O)([O-])c3ccc(Cl)s3)ccc21 [NCGC00521874-01] |  |  | 8.93e-07 M | AC50 [3]: 1.42e-06 M; AC50 [5]: 7.1e-07 M |
| CCCN1C(CC(C)C)=N[S+](=O)([O-])c2cc(NC(=O)C(=O)OCC)ccc21 [NCGC00521135-01] |  |  | 7.96e-06 M | AC50 [3]: 1.59e-05 M |
| O=C(CC1C(=O)NCCN1Cc1cccc(Oc2ccccc2)c1)NCc1ccco1 (centres unmarked) [NCGC00439848-01] | -8.3643 M | 0.00432 µM |  |  |
| CCCN1C(C)=N[S+](=O)([O-])c2cc(NC(=O)c3ccc(F)cc3)ccc21 [NCGC00522607-01] |  |  | 1.26e-06 M | AC50 [3]: 1.12e-06 M |
| Cc1nn(C)c(C)c1CCC(=O)N1CCC(Cc2noc(-c3ccc(F)cc3)n2)C1 (centres unmarked) [NCGC00443260-01] | -4.5143 M | 30.6 µM |  |  |
| CCCN1C(CC(C)C)=N[S+](=O)([O-])c2cc(N[S+](=O)([O-])c3ccccc3)ccc21 [NCGC00521146-01] |  |  | 7.1e-06 M | AC50 [3]: 7.96e-06 M |
| COc1ccc(N2CCN(c3cc(C4CC(N)C4)nc(N)n3)CC2(C)C)cc1 (centres unmarked) [NCGC00422579-01] |  | > 57 µM |  | activity at 1 µM ([6]; repeat 1, read-out: Pb-Luc signal, 1 uM, repeat 1): 82.6%; activity at 1 µM ([6]; repeat 2, read-out: Pb-Luc signal, 1 uM, repeat 2): 91.8%; activity at 1 µM ([6]; repeat 3, read-out: Pb-Luc signal, 1 uM, repeat 3): 99.3%; activity at 3 µM ([6]; repeat 1, read-out: Pb-Luc signal, 3 uM, repeat 1): 76.6%; activity at 3 µM ([6]; repeat 2, read-out: Pb-Luc signal, 3 uM, repeat 2): 88.5%; activity at 3 µM ([6]; repeat 3, read-out: Pb-Luc signal, 3 uM, repeat 3): 81.6%; viability at 48 h, 1 µM [7]: 103%; viability at 48 h, 3 µM [7]: 102%; HepG2 viability signal, 1 uM, repeat 2 ([8]; nominal 1 uM (10 mM stock), […] for 15 mM, 1.2 uM for 12 mM, 2 uM for 20 mM stock): 102.33%; HepG2 viability signal, 3 uM, repeat 2 ([8]; nominal 3 uM (10 mM stock), 4.5 uM for 15 mM, 3.6 uM for 12 mM, 6 uM for 20 mM stock): 97.69%; AC50 [9]: 2.99 µM |
| CCCN1C(CC(C)C)=N[S+](=O)([O-])c2cc(NC(=O)C3CCOCC3)ccc21 [NCGC00521138-01] |  |  | 3.99e-06 M | AC50 [5]: 1.22e-05 M |

More lines, main results first:

| Log AC50 (M) [2] | Structure (SMILES) | CC50 at 48 h [1] | AC50 [4] | also measured |
| --- | --- | --- | --- | --- |
| -4.5143 M | OC[C@H]1CCN(Cc2ccc(-c3cccc(Cl)c3Cl)o2)C[C@@H]1O [NCGC00438915-01] | 30.6 µM |  |  |
| -5.1643 M | Cc1nc(-c2ccc(Cl)cc2)sc1CCNC(=O)c1ccco1 [NCGC00131874-01] | 6.85 µM |  |  |
| -4.4643 M | CC(C)c1nc(-c2ccc(OC3CCN(C(=O)c4cc(F)ccc4F)C3)cc2)no1 (centres unmarked) [NCGC00441011-01] | 34.3 µM |  |  |
| -4.3643 M | CCOC(=O)c1ccc(-c2ccc(/C=C(\C#N)c3nc4cc(C)ccc4[nH]3)o2)cc1 [NCGC00098928-01] | 43.2 µM |  |  |
| -4.3643 M | CC(C(=O)N1CCCN(c2cc(-c3ccc(Cl)cc3)n[nH]2)CC1)c1ccccc1 (centres unmarked) [NCGC00436178-01] | 43.2 µM |  |  |
| -4.4643 M | Cc1ccc(NC(=O)C2CCN(c3cc(C(F)(F)F)ncn3)CC2)cc1 [NCGC00455557-01] | 34.3 µM |  |  |
| -4.3643 M | O=C(Nc1cccc(C(F)(F)F)c1)C1CCN([S+](=O)([O-])c2cccc3nsnc23)CC1 [NCGC00108239-01] | 43.2 µM |  |  |
| -4.3643 M | Cc1cccc(Cn2nnc3c2C(=O)c2ccccc2C3=O)c1 [MLS000594471-01] | 43.2 µM |  |  |

— publication PMC7822874, “Chemoprotective antimalarials identified through quantitative high-throughput screening of Plasmodium blood and liver stage parasites” (Scientific Reports, 2021)
